From patent US12508259B2, “Pharmaceutical formulations containing Nalbuphine” (Humanwell Pharmaceutical US, Inc., priority 2022, dated 2025)
In brackets after ≈: the same amount, converted by molar mass. Structures can show the parent of a compound that is named as a salt. Where two headings read alike, the source gives them in different places.

Tests used:
[1] = Nalbuphine solubility in different acids (overnight stirring, HPLC); type: physicochemical; conditions: approx. 0.5 mmol/mL acid; for solubility: aqueous buffer, thermodynamic from solid, Nalbuphine base Solubility
Procedure: A preliminary assessment of Nalbuphine solubility in different acids was performed. After overnight continuous stirring, the suspensions were centrifuged, and supernatants were filtered through a 0.2 μm filter.

[2] = commercially available Nalbuphine hydrochloride; cited from earlier work

Oc1ccc2c3c1O[C@H]1[C@@H](O)CC[C@@]4(O)[C@@H](C2)N(CC2CCC2)CC[C@]314 [Nalbuphine base, N-cyclobutylmethyl-14-hydroxydihydronormorphine]
solubility ([1]; DL-malic acid solution, in DL-Malic acid): 630 mM (≈ 225 mg/mL)
solubility ([1]; acetic acid solution, in Acetic acid): 420 mM (≈ 150 mg/mL)
solubility ([1]; citric acid solution, in Citric acid): > 1000 mM
solubility ([1]; hydrochloric acid solution, in Hydrochloride acid): 90 mM (≈ 32.2 mg/mL)
Nalbuphine base Solubility ([1]; in Citric acid): 1070 mM
Nalbuphine base Solubility ([1]; in Sulfuric acid): ~1120 mM
solubility ([1]; lactic acid solution, in Lactic acid): 460 mM (≈ 164 mg/mL)
solubility ([1]; phosphoric acid solution, in Phosphoric acid): 530 mM (≈ 189 mg/mL)
solubility ([1]; succinic acid solution, in Succinic acid): 480 mM (≈ 172 mg/mL)
solubility ([1]; sulfuric acid solution, in Sulfuric acid): > 1000 mM
solubility ([1]; tartaric acid solution, in Tartaric acid): 930 mM (≈ 332 mg/mL)

Oc1ccc2c3c1O[C@H]1[C@@H](O)CC[C@@]4(O)[C@@H](C2)N(CC2CCC2)CC[C@]314 [Nalbuphine hydrochloride]
solubility [2]: approximately 30 mg/mL
